Assay results from the METLIN SMRT retention time set (Domingo-Almenara et al. 2019).

Assay: gradient 5% acetonitrile 3 min, to 50% in 2 min, to 85% in 15 min, held 3 min, 100 µL/min
Conditions: column: Zorbax Extend-C18 2.1 x 50 mm; eluents: water / acetonitrile, 0.1% formic acid
Method in brief: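 Retention times of pure standards were taken from adduct peaks that were selected by computer and manually inspected. Over 3 months, mixtures of ~100 molecules were run by HPLC–quadrupole time-of-flight mass spectrometry in positive and negative ionization mode. The Zorbax Extend-C18 column (2.1 × 50 mm, 1.8 μm) ran at 100 μL/min in water and acetonitrile, each containing 0.1% formic acid, with 40 μL dead volume and 900 μL dwell volume.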

Going from `CC(C(=O)NCc1nn(C)c2ccccc12)c1ccccc1` (centres undefined) to `CCN(CC)CCNC(=O)c1c(-c2ccccc2)c(-c2ccccc2)nn(CC)c1=O`, the RP-LC retention time falls from 792 s to 666 s.

Going from `Cc1cccc(NC(=O)Cn2ncn3c(C)c(C(=O)NCC(C)C)c(C)c3c2=O)c1` to `CCCC(=O)Nc1ccc2nc(N3CCN(c4cccc(C)c4C)CC3)cc(C(=O)O)c2c1`, the RP-LC retention time rises from 594 s to 732 s.

First: Cc1ccc(N2C(=O)C3N=NN(Cc4nc(-c5cccc(Br)c5)no4)C3C2=O)cc1C (centres undefined)
Second: Cc1ccc(Nc2c(-c3cccc(Br)c3)nc3cc(C)ccn23)cc1
The RP-LC retention time of the first is higher: 1120 s for the first, 857 s for the second.

Going from `O=C(NCc1cccnc1)C1c2ccccc2C(=O)N1Cc1ccc2c(c1)OCO2` (centres undefined) to `Cc1ccc(C(=O)Nc2ccc(N3CCN(Cc4ccccc4)C3=O)nc2)s1`, the RP-LC retention time rises from 609 s to 847 s.

Going from `COc1cc(-c2nc3ncccn3c2Nc2ccc(C(C)C)cc2)ccc1O` to `COc1ccccc1Nc1c(-c2ccc(C)cc2)nc2cnccn12`, the RP-LC retention time rises from 711 s to 954 s.

Compared with `O=C(CCn1nnc2cc(-c3noc(COc4ccccc4)n3)ccc21)N1CCCCCC1`, `O=C(CCc1nc(-c2ccc(N3CCCC3)cc2)no1)Nc1ccc2c(c1)OCCO2` is higher in RP-LC retention time: 1000 s for the first, 1010 s for the second.

Going from `Cc1cccc(CNC(=O)C2CCN(S(=O)(=O)c3ccc4c(c3)NC(=O)CO4)CC2)c1` to `CCc1cccc(NC(=O)C2CCN(S(=O)(=O)c3ccc4c(c3)CC(C)N4C(C)=O)CC2)c1` (centres undefined), the RP-LC retention time rises from 794 s to 942 s.

Compared with `Cc1ccc(C)c(S(=O)(=O)N2CCC(c3noc(COCC4CC4)n3)CC2)c1`, `COC(=O)c1ccc(C(=O)NCC2CCN(S(=O)(=O)C3CC3)CC2)cc1` is lower in RP-LC retention time: 1100 s for the first, 732 s for the second.

First: COc1cccc(-c2cc(C(=O)N3CCCC3c3c(C)noc3C)on2)c1 (centres undefined)
Second: Cn1cc(Cl)c(C(=O)N2CCCC2c2ccccc2F)n1 (centres undefined)
The RP-LC retention time of the first is higher: 872 s for the first, 813 s for the second.

Compared with `c1ccc(-c2nc(CSc3ccc(-n4cccn4)nn3)cs2)cc1`, `Cc1nc(NC(=O)C2CCCN(c3ccc(-n4cccn4)nn3)C2)sc1C` (centres undefined) is lower in RP-LC retention time: 1020 s for the first, 699 s for the second.

Going from `O=C(Cc1ccsc1)N1CCC(n2c(-c3ccoc3)nc3cccnc32)C1` (centres undefined) to `CC(C)n1c(C2CCN(C(=O)Cc3cccc(Cl)c3)C2)nc2ccncc21` (centres undefined), the RP-LC retention time falls from 811 s to 567 s.

Compared with `O=S(=O)(NCC1CCN(Cc2ccco2)CC1)c1ccc(F)c(Cl)c1`, `O=C(NC1CC1)c1nnc(-c2ccc(S(=O)(=O)N3CCCCC3)cc2)o1` is higher in RP-LC retention time: 575 s for the first, 804 s for the second.

First: COC(=O)c1ncn2c1C(=O)N(c1ccc(F)cc1)C(C)(C(=O)NCc1ccc(C)cc1)C2 (centres undefined)
Second: COc1cc(C(=O)N2CCCC(C)(C(=O)NCc3ccc(C)cc3)C2)cc(OC)c1OC (centres undefined)
The RP-LC retention time of the first is lower: 732 s for the first, 820 s for the second.

Going from `O=C(CCSc1ccccc1)NCC1CCN(C(=O)COc2ccccc2)CC1` to `Cc1nnc(C2CCCN(C(=O)COc3ccccc3)C2)s1` (centres undefined), the RP-LC retention time falls from 757 s to 653 s.

First: CCOc1ccc(NC(=O)c2cc(=O)c3cc(CC)ccc3o2)c2cccnc12
Second: CCOC(=O)c1ccc2nc(C)cc(NC(=O)c3ccco3)c2c1
The RP-LC retention time of the first is higher: 693 s for the first, 583 s for the second.

Compared with `Cc1ccc(NC(=O)c2nc3nc(C)cc(C(F)F)n3n2)c(C)c1`, `Cc1ccc(Cl)cc1NC(=O)Cn1c(C)nc2c(sc3nc(-c4ccccc4)ccc32)c1=O` is higher in RP-LC retention time: 854 s for the first, 1140 s for the second.

Going from `Cc1ccc(-c2nnc(N3CCC(C(=O)NCc4cccs4)CC3)o2)cc1` to `CCc1ccc(Oc2cc(N3CCC(C(=O)NCCc4cccs4)CC3)ncn2)cc1`, the RP-LC retention time falls from 933 s to 851 s.

Compared with `CCOc1ccc(NC(=O)Nc2nccn(-c3ccccc3OC)c2=O)cc1`, `CCOc1nc2ccccc2nc1N1CCCC(C(=O)Nc2ccc(Cl)cc2)C1` (centres undefined) is higher in RP-LC retention time: 935 s for the first, 1300 s for the second.

Compared with `O=C(c1nnn(-c2ccc(Cl)cc2)c1-c1cccnc1)N1CCSCC1`, `CC1(C)CC(=O)c2cn(-c3ccc(Cl)cc3)c(=O)c(C(=O)N3CCCC3)c2C1` is higher in RP-LC retention time: 780 s for the first, 786 s for the second.

Going from `Cc1cccc(C#Cc2ccccc2)n1` to `Cc1cc(OCC(=O)NCc2ccccc2Br)nc(N2CCN(c3ccccc3)CC2)n1`, the RP-LC retention time rises from 833 s to 871 s.

Compared with `O=C(NCc1cccc(F)c1)c1cn2c(n1)CCCC2`, `CCC1CN2C=NC(N3CCN(C(=O)NCc4cccc(F)c4)CC3)=CC2=N1` (centres undefined) is higher in RP-LC retention time: 584 s for the first, 615 s for the second.

Compared with `Cc1ccc(CNC(=O)Cn2ccc3ccc(-c4nnc(C)o4)cc32)o1`, `Cc1sc(-c2nnc(C3CC3)o2)cc1NC(=O)Cc1c[nH]c2ccccc12` is higher in RP-LC retention time: 729 s for the first, 877 s for the second.

Going from `O=C(Nc1cc(-c2ccccn2)no1)c1ccc(Cl)cc1` to `Cc1ccc(N2CC(c3nc(-c4ccc(Cl)cc4)no3)CC2=O)cc1` (centres undefined), the RP-LC retention time rises from 864 s to 1010 s.

Compared with `CCOc1ccc(NC(=O)N2CCN(c3cc(C)nc(N4CCOCC4)n3)CC2)cc1`, `Cc1cc(N2CCN(S(=O)(=O)c3cc(F)ccc3F)CC2)nc(N2CCCC2)n1` is higher in RP-LC retention time: 624 s for the first, 717 s for the second.

First: CCc1ccc(C2=C(C)C(N3CCCN(C(C)=O)CC3)=NS2(=O)=O)cc1
Second: CN1CCN(C(=O)c2ccc(-c3ccc(Br)cc3)o2)CC1
The RP-LC retention time of the first is higher: 745 s for the first, 588 s for the second.

First: CC1CCN(C(=O)c2ccc3c(c2)N(CC(=O)N2CCCC2)C(=O)CO3)CC1
Second: Cn1cc(S(=O)(=O)N2CCC(C(=O)Nc3ccccn3)CC2)cc1C(=O)N1CCCC1
The RP-LC retention time of the first is higher: 703 s for the first, 635 s for the second.

Compared with `Nc1nc(N2CCC3(CC2)OCCO3)ncc1S(=O)(=O)c1ccccc1`, `COc1ccc(CN2CCc3nc(N4CCOCC4)ncc3C2)c(OC)c1OC` is lower in RP-LC retention time: 808 s for the first, 597 s for the second.

Compared with `CCCCOc1ccc(-c2nc(C3CC(=O)N(c4ccc(CC)cc4)C3)no2)cc1` (centres undefined), `COc1cccc(-c2noc(C3CC(=O)N(c4ccc5c(c4)OCO5)C3)n2)c1OC` (centres undefined) is lower in RP-LC retention time: 1390 s for the first, 871 s for the second.

Going from `CCCN1CCN(C(=O)C2Cc3cc(S(=O)(=O)N(CC)CC)ccc3N2C(C)=O)CC1` (centres undefined) to `CC(=O)N1c2ccc(S(=O)(=O)N3CCCCCC3)cc2CC1C(=O)NCCN(C)C` (centres undefined), the RP-LC retention time rises from 610 s to 637 s.

Going from `CCC(C(=O)Nc1ccc(C)cc1)n1cnc2nc3c(cc2c1=O)CCCC3` (centres undefined) to `CCc1ccc(NC(=O)N2CCC(C(=O)NCc3csc(C)n3)CC2)cc1`, the RP-LC retention time falls from 756 s to 660 s.

First: O=C(Cn1cnc2ccccc2c1=O)NC1CCCC1
Second: O=C(CN1CCCC1=O)NCc1ccc(F)c(Cl)c1
The RP-LC retention time of the first is higher: 672 s for the first, 667 s for the second.

Going from `COc1ccc2[nH]cc(CCn3ccc4c(cnc5nc(-c6ccc(Cl)cc6)nn54)c3=O)c2c1` to `O=c1c2ccccc2c(-c2nc(-c3ccncc3)no2)cn1-c1cccc(Cl)c1`, the RP-LC retention time rises from 990 s to 1020 s.

First: CC(=O)C1=C(C)N(CC2CCCO2)C(=O)C1(NC(=O)c1ccc(C(C)(C)C)cc1)C(F)(F)F (centres undefined)
Second: CC(=O)Nc1cc2c(cc1S(=O)(=O)c1ccc(C)cc1)n(C)c(=O)n2C
The RP-LC retention time of the first is higher: 1050 s for the first, 683 s for the second.

Going from `CC1CCN(S(=O)(=O)c2ccc3nn(CC#N)c(=O)n3c2)CC1` to `CCOc1ccc(S(=O)(=O)N2CCC(C(=O)NCCOC)CC2)cc1`, the RP-LC retention time falls from 813 s to 709 s.

Compared with `O=C(C1=CN(c2cccc(Br)c2)c2ccccc2S1(=O)=O)N1CCOCC1`, `CCOC(=O)c1nc(N2CCN(c3cccc(C(F)(F)F)c3)CC2)c2ccccc2n1` is higher in RP-LC retention time: 788 s for the first, 1070 s for the second.

First: CCn1cc2c3c(cccc31)CN(C(=O)Nc1cc(OC)c(OC)c(OC)c1)CC2
Second: COc1ccc(S(=O)(=O)NCc2ccc3c(c2)CCN3C(=O)C(C)C)cc1
The RP-LC retention time of the first is lower: 742 s for the first, 861 s for the second.

First: CC(=O)Nc1ccc(C(=O)NC(C(=O)N2CCCc3ccccc32)c2ccccc2)cc1 (centres undefined)
Second: CCOc1ccccc1NC(=O)N1c2ccccc2CC1c1nc(C2CC2)no1 (centres undefined)
The RP-LC retention time of the first is lower: 850 s for the first, 1180 s for the second.

Compared with `CC(C)COc1nc2c(c(=O)n(C)c(=O)n2C)n1C`, `CCC(=O)Nc1ccc2c(c1)Sc1ncccc1C(=O)N2C` is lower in RP-LC retention time: 865 s for the first, 630 s for the second.

Going from `CC(C)Cc1nc(CNC(=O)C2CCCCC2)no1` to `CCc1noc2nc(C)nc(N3CCCC(C(=O)NC4CC4)C3)c12` (centres undefined), the RP-LC retention time falls from 836 s to 711 s.

First: CC1CCCCN1CCNC(=O)c1cc(S(=O)(=O)N2CCCCC2)ccc1Cl (centres undefined)
Second: CCCn1c(=O)sc2cc(S(=O)(=O)N3CCC(C(=O)N4CCc5ccccc54)CC3)ccc21
The RP-LC retention time of the first is lower: 651 s for the first, 1020 s for the second.

Going from `CCOC(=O)c1c(C)[nH]c(C(=O)N2CCC(CC(=O)NCc3cccc(Cl)c3)CC2)c1C` to `COCCC1CCN(C(=O)CN(C)C(=O)Cc2c(C)noc2C)CC1`, the RP-LC retention time falls from 824 s to 627 s.

Compared with `O=C(c1ccco1)N1CCc2c(c(CO)nn2Cc2ccccc2)C1`, `COc1ccc(-c2cc3n(n2)CCCN(S(=O)(=O)c2ccc(C(C)=O)cc2)C3)cc1` is higher in RP-LC retention time: 657 s for the first, 882 s for the second.

First: O=C(c1cccn1-c1nnc(N2CCOCC2)s1)N1CCCCCC1
Second: CSc1ccccc1NC(=O)c1c(C)sc2ncnc(N3CCCC(C)C3)c12 (centres undefined)
The RP-LC retention time of the first is lower: 747 s for the first, 1210 s for the second.

First: CCCNc1nnc(-c2nc(C3CC3)no2)c2ccccc12
Second: CC(C)N1CCC(c2nnc3n2CCN(S(=O)(=O)c2ccc(C(F)(F)F)cc2)C3)C1 (centres undefined)
The RP-LC retention time of the first is higher: 660 s for the first, 650 s for the second.

In the case of `COc1ccc(N2CC(C(=O)N3CCC(C(=O)Nc4nc(C)cs4)CC3)CC2=O)cc1` (centres undefined), the RP-LC retention time is reported as 680 s.
